Measurements reported in ChEMBL document CHEMBL1177692 (Bioorg Med Chem, 2010).

These molecules were tested against Carbonic anhydrase 9 (Homo sapiens, UniProt Q16790) (assay: Inhibition of human recombinant carbonic anhydrase 9 catalytic domain preincubated for 15 mins by CO2 hydration method).

Row | Ki | Compound
1 | 0.059 µM | COc1ccc2c(CC(=O)Nc3cccc(S(N)(=O)=O)c3)cc(=O)oc2c1
2 | 0.087 µM | COc1ccc2c(CC(=O)Nc3ccc(S(N)(=O)=O)cc3)cc(=O)oc2c1
3 | 0.014 µM | COc1ccc2c(CC(=O)Nc3cc(C(F)(F)F)c(S(N)(=O)=O)cc3S(N)(=O)=O)cc(=O)oc2c1
